The IC50 is the midpoint of a concentration-inhibition curve.

Counter-ions that a name gives are not always drawn. Like-named read-outs stand apart in the source and are kept apart here.

The test system of assay [1] is MLKL phosphorylation in HT29-L23 human colorectal adenocarcinoma cells. Briefly: MLKL Phosphorylation High-Content Assay. Conditions: necroptosis induced with TNFα, SMAC mimetic and Z-VAD, 6 h, read-out: pMLKL (IC50). In kind it is cell-based. In a few lines:
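HT29-L23 cells pretreated 30 min at 37 °C with compound (6.25 to 0.106 μM final), then necroptosis induced with TNFα 35 ng/mL, SMAC mimetic 700 nM and Z-VAD 140 nM for 6 h. Fixed cells immunostained for MLKL pS358 and imaged; IC50 and Ymax from 4-parameter logistic fit.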

The target of assay [2] is His-GST-TVMV-hRIPK1(1-324) (Homo sapiens (Human), UniProt Q13546). Description: RIPK1 HTRF Binding Assay. The settings on record: HTRF binding, 1 h at rt; read-out: RIPK1 (IC50). In a few lines: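 HTRF probe-displacement binding: 1 nM His-GST-TVMV-hRIPK1(1-324) (baculovirus construct), 90.6 nM probe, 0.2 nM anti-GST-Tb in 20 mM HEPES, 10 mM MgCl2, 0.015% Brij-35, 4 mM DTT, 0.05 mg/mL BSA. Incubated 1 h at rt; FRET 520/495 nm ratio, inhibition relative to DMSO-only wells.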
Sequence of His-GST-TVMV-hRIPK1(1-324) (Q13546 1-324): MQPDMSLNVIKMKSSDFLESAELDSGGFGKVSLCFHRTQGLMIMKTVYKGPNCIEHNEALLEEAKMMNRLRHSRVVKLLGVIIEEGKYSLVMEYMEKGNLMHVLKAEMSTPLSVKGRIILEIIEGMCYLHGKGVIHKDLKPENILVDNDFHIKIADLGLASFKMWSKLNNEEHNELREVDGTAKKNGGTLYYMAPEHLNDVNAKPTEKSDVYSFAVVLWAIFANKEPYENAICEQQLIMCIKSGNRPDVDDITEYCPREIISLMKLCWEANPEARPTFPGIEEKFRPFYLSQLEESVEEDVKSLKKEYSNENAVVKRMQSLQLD
A general note: Time-resolved FRET reads energy transfer from a long-lived donor to a nearby acceptor.

On to `COc1nc(C)c(-c2ccc3nc(NC(C)=O)cn3n2)cc1C(=O)NC(C)c1cc(C(F)(F)F)ccc1F` (centres unmarked) [Example 277, 5-{2-acetamidoimidazo[1,2-b]pyridazin-6-yl}-N-{1-[2-fluoro-5-(trifluoromethyl)phenyl]ethyl}-2-methoxy-6-methylpyridine-3-carboxamide], for which the IC50 in assay [1] was found to be 0.263 µM; in assay [2], 0.107 µM.
For `Cc1ncc(-c2ccc3nc(NC(=O)[C@H](C)O)cn3n2)cc1C(=O)N[C@H](C)c1cc(OC(F)(F)F)ccc1F` [Example 339, N-((R)-1-(2-fluoro-5-(trifluoromethoxy)-phenyl)ethyl)-5-(2-((S)-2-hydroxypropanamido)-imidazo[1,2-b]pyridazin-6-yl)-2-methylnicotinamide], the IC50 in assay [1] (Homo sapiens) is 0.17 µM; in assay [2], 0.048 µM.
In the case of `COc1ncc(-c2ccc3nc(NC(C)=O)c(C)n3n2)cc1C(=O)NCc1ccccc1OC(F)(F)F` [Example 258, 5-{2-acetamido-3-methylimidazo[1,2-b]pyridazin-6-yl}-2-methoxy-N-{[2-(trifluoromethoxy)phenyl]methyl}pyridine-3-carboxamide, TFA], the half-inhibitory concentration (IC50) is 0.057 µM in assay [1] (Homo sapiens) and 0.072 µM in assay [2].
Consider `COc1ncc(-c2ccc3nc(NC(C)=O)c(C)n3n2)cc1C(=O)NCc1ccc(F)c(OC(F)(F)F)c1` [Example 255, 5-{2-acetamido-3-methylimidazo[1,2-b]pyridazin-6-yl}-N-{[4-fluoro-3-(trifluoromethoxy)phenyl]methyl}-2-methoxypyridine-3-carboxamide], for which the IC50 in assay [1] (Homo sapiens) was 0.263 µM; in assay [2], 0.087 µM.
For `COc1nc(C)c(-c2ccc3nc(NC(C)=O)cn3n2)cc1C(=O)NCc1ccccc1OC1CCOC1` (centres unmarked) [Example 307, 5-{2-acetamidoimidazo[1,2-b]pyridazin-6-yl}-2-methoxy-6-methyl-N-{[2-(oxolan-3-yloxy)phenyl]methyl}pyridine-3-carboxamide], the figures for the IC50 in assay [1] and in assay [2] were 0.005 µM and 0.011 µM, respectively.
As to `COc1nc(C)c(-c2ccc3nc(NC(C)=O)cn3n2)cc1C(=O)NCc1cc(F)cc(C(F)(F)F)c1` [Example 293, 5-{2-acetamidoimidazo[1,2-b]pyridazin-6-yl}-N-{[3-fluoro-5-(trifluoromethyl)phenyl]methyl}-2-methoxy-6-methylpyridine-3-carboxamide], the half-maximal inhibitory concentration (IC50) in assay [1] (Homo sapiens) was found to be 0.135 µM; in assay [2], 0.033 µM.
Take `COc1ncc(-c2ccc3nc(NC(C)=O)cn3n2)cc1C(=O)NCc1cccc(F)c1OC(C)C1CC1` (centres unmarked) [Example 134, N-{[2-(1-cyclopropylethoxy)-3-fluorophenyl]methyl}-5-{2-acetamidoimidazo[1,2-b]pyridazin-6-yl}-2-methoxypyridine-3-carboxamide]: the IC50 in assay [1] is 0.028 µM; in assay [2], 0.018 µM.
In the case of `COc1ncc(-c2ccc3nc(NC(C)=O)cn3n2)cc1C(=O)NCc1ccc(F)cc1OC(F)(F)F` [Example 120, 5-{2-acetamidoimidazo[1,2-b]pyridazin-6-yl}-N-{[4-fluoro-2-(trifluoromethoxy)phenyl]methyl}-2-methoxypyridine-3-carboxamide], the IC50 in assay [1] (Homo sapiens) came out at 0.383 µM; in assay [2], 0.17 µM.
For the compound `COc1ncc(-c2ccc3nc(NC(=O)CC#N)cn3n2)cc1C(=O)NCc1ccccc1OC(F)(F)F` [Example 32, 5-[2-(2-cyanoacetamido)imidazo[1,2-b]pyridazin-6-yl]-2-methoxy-N-{[2-(trifluoromethoxy)phenyl]methyl}pyridine-3-carboxamide], the IC50 in assay [1] (Homo sapiens) worked out at 0.177 µM; in assay [2], 0.078 µM.
For `COc1ncc(-c2ccc3nc(NC(C)=O)cn3n2)cc1C(=O)NCc1cccc(F)c1OCC1CC1` [Example 151, N-{[2-(cyclopropylmethoxy)-3-fluorophenyl]methyl}-5-{2-acetamidoimidazo[1,2-b]pyridazin-6-yl}-2-methoxypyridine-3-carboxamide, TFA], the IC50 is 0.006 µM in assay [1] and 0.008 µM in assay [2].
Turning to `CC(=O)Nc1cn2nc(-c3cnc(C)c(C(=O)NCc4cccc(OC(F)(F)F)c4)c3)ccc2n1` [Example 221, 5-{2-acetamidoimidazo[1,2-b]pyridazin-6-yl}-2-methyl-N-{[3-(trifluoromethoxy)phenyl]methyl}pyridine-3-carboxamide, TFA], the values for the IC50 in assay [1] (Homo sapiens) and in assay [2] were 0.052 µM and 0.049 µM, respectively.
On to “N-{[3,5-difluoro-2-(oxan-4- yloxy)phenyl](deutero)methyl}- 5-{2-acetamidoimidazo[1,2-b] pyridazin-6-yl}- 2-methylpyridine- 3-carboxamide [Example 192]”, for which the IC50 is 0.005 µM in assay [1] and 0.003 µM in assay [2].
As for `[2H]C([2H])([2H])Oc1ncc(-c2ccc3nc(NC(C)=O)cn3n2)cc1C(=O)NCc1cc(F)cc(F)c1OC1CCCOC1` (centres unmarked) [Example 43, N-{[3,5-difluoro-2-(oxan-3-yloxy)phenyl]methyl}-5-{2-acetamidoimidazo[1,2-b]pyridazin-6-yl}-2-(D3)methoxypyridine-3-carboxamide], the figures for the IC50 in assay [1] (Homo sapiens) and in assay [2] were 0.028 µM and 0.01 µM, respectively.
For `COc1ncc(-c2ccc3nc(NC(C)=O)cn3n2)cc1C(=O)NCc1cc(F)cc(F)c1OC1CC(C)OC(C)C1` (centres unmarked) [Example 103, N-({2-[(2,6-dimethyloxan-4-yl)oxy]-3,5-difluorophenyl}methyl)-5-{2-acetamidoimidazo[1,2-b]pyridazin-6-yl}-2-methoxypyridine-3-carboxamide] the same measures were 0.188 µM and 0.051 µM.
For `CC(=O)Nc1cn2nc(-c3cnc(C)c(C(=O)NCC[C@@H](O)c4ccc(Cl)cc4)c3)ccc2n1` [Example 211, N-[(3R)-3-(4-chlorophenyl)-3-hydroxypropyl]-5-{2-acetamidoimidazo[1,2-b]pyridazin-6-yl}-2-methylpyridine-3-carboxamide] the same measures were 0.137 µM and 0.062 µM.
For `COc1ncc(-c2ccc3nc(NC(C)=O)cn3n2)cc1C(=O)NCc1c(F)cccc1OC1CCCC1` [Example 156, N-{[2-(cyclopentyloxy)-6-fluorophenyl]methyl}-5-{2-acetamidoimidazo[1,2-b]pyridazin-6-yl}-2-methoxypyridine-3-carboxamide] the same measures were 0.003 µM and 0.002 µM.
For `[2H]C([2H])(NC(=O)c1cc(-c2ccc3nc(NC(C)=O)cn3n2)cnc1OC)c1cc(F)cc(F)c1OC1CCOCC1` [Example 153, 5-(2-acetamidoimidazo[1,2-b]pyridazin-6-yl)-N-((3,5-difluoro-2-((tetrahydro-2H-pyran-4-yl)oxy)phenyl)methyl-d2)-2-methoxynicotinamide], the 50% inhibitory concentration (IC50) in assay [1] (Homo sapiens) and in assay [2] was 0.001 µM in each case.
Regarding `CC(=O)Nc1cn2nc(-c3ccc(C)c(C(=O)NC[C@H]4C[C@@H]4c4ccc(F)cc4)c3)ccc2n1` [Example 401, 5-{2-acetamidoimidazo [1,2-b]pyridazin-6-yl}-N-{[(1S, 2S)-2-(4-fluorophenyl)cyclopropyl]methyl}-2-methylbenzamide], the IC50 is 0.077 µM in assay [1] (Homo sapiens) and 0.105 µM in assay [2].
For `COc1nc(C)c(-c2ccc3nc(NC(C)=O)cn3n2)cc1C(=O)NCc1cc(F)cc(F)c1OCC1CC1` [Example 300, N-{[2-(cyclopropylmethoxy)-3,5-difluorophenyl]methyl}-5-{2-acetamidoimidazo[1,2-b]pyridazin-6-yl}-2-methoxy-6-methylpyridine-3-carboxamide] the same measures were 0.076 µM and 0.004 µM.

The values are drawn from patent US11440913B2, “Aminoimidazopyridazines as kinase inhibitors” (BRISTOL-MYERS SQUIBB COMPANY, priority 2017, dated 2022).
